Assay results from patent US11311518B1, “Parenteral dosage form of β3 adrenoreceptor agonists” (Jubilant Pharma Holdings Inc., priority 2021, dated 2022).
In brackets after ≈: the same amount, converted by molar mass.

How the values were obtained:
[1] = tested on: biomarkers such as uncoupling protein 1 (UCP1), PGC-1α in iWAT (Inguinal white adipose tissue); experiment: Biomarker expression in iWAT after localized microinjections of the injection formulations; type: in vivo, C57BL/6 mice; details: dose up to 1 mg per animal; single and multiple localized microinjections in iWAT; indicates marked thermogenesis
Protocol: In certain non-limiting embodiments, the injection formulations were evaluated to determine the effect of mirabegron in animals (such as C57BL/6 mice etc.). The purpose of this study was to determine the effect of mirabegron on modulation in biomarkers such as uncoupling protein 1 (UCP1), Peroxisome proliferator-activated receptor-gamma coactivator-1alpha (PGC-1α) and others in this category to check pharmacokinetics after single and multiple localized microinjections in iWAT (Inguinal white adipose tissue). […]

[2] = background statement; cited from earlier work
[3] = Solubility of the API in various solvent systems (saturation solubility studies); type: physicochemical
Description: In developing the parenteral formulation of mirabegron, the present inventors conducted extensive research and experiments. The solubility of API was studied in various solvent systems. For formulating immediate release injectable formulations, the solubility of the drug plays an important role as the final parenteral formulation has to be essentially a clear solution. […] Further, the inventors of the present invention were able to achieve maximum API solubility based on series of saturation solubility studies performed. […] The assessment of the successful development and stability of the solutions has been made on basis of the appearance of the solutions, the pH-value, osmolality, impurities content, and stability. The prepared formulations were found acceptable on these parameters.

- Solubility of API in Acetate buffer ([3]; Acetate buffer having pH 4.5, saturation solubility studies): maximum solubility
- Solubility of API when pH is adjusted to the acidic side ([3]; pH close to 3.0): soluble
- solubility ([3]; solution with pH adjusted to the acidic side, pH 3, aqueous buffer, after pH adjusted to the acidic side): ≤ 100000 µg/mL
- Solubility of API in water ([3]; water): practically insoluble
- solubility ([3]; water, starting value, before pH adjustment): ~100 µg/mL (≈ 252 µM)
SMILES: Nc1nc(CC(=O)Nc2ccc(CCNC[C@H](O)c3ccccc3)cc2)cs1 [Mirabegron, (R)-2-(2-aminothiazol-4-yl)-4′-{2-[(2-hydroxy-2 phenylethyl)amino]ethyl}acetanilide]
- Expression of biomarkers in iWAT [1]: statistically significant increase
- Solubility in water [2]: practically insoluble
- Drug solubility with co-solvent ([3]; co-solvent (such as propylene glycol) with or without heating): failed to achieve desired drug solubility
